One experiment addresses T1, SMARCA4 (Homo sapiens, UniProt P51532).
T1 construct: SMARCA4-HiBiT knock-in Hela monoclonal cell (CS3023226); host or cells: HeLa monoclonal cells with heterozygous HiBiT knock-in at the endogenous SMARCA4 locus
The experiment is described as follows: SMARCA4 HiBiT degradation assay in HeLa cells. Conditions: 18 hours, highest concentration 10 μM. It is filed as cell-based. The essentials:
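HeLa monoclonal cells with HiBiT knocked into SMARCA4 were seeded at 2500 cells/well, dosed with compound and incubated 18 hours at 37° C. HiBiT signal reported remaining SMARCA4 protein, and values came from curve fitting.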
(In general: The HiBiT peptide binds its large partner to form an active luciferase.)

Another experiment concerns the target T2, SMARCA2 (Homo sapiens, UniProt P51531).
T2 construct: SMARCA2-HiBiT knock-in Hela monoclonal cell (CS302366); host or cells: HeLa monoclonal cells with heterozygous HiBiT knock-in at the endogenous SMARCA2 locus
The experiment is described as follows: SMARCA2 HiBiT degradation assay in HeLa cells. It is filed as cell-based. The conditions noted are these: 18 hours, highest concentration 10 μM. The essentials: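 HeLa cells carrying a heterozygous C-terminal HiBiT knock-in on SMARCA2 were seeded at 2500 cells/well. They were treated with 3-fold dilution series, top concentration 10 μM, for 18 h at 37 °C. Remaining SMARCA2-HiBiT was measured by Nano-Glo HiBiT lytic luminescence after 30-60 min at RT, followed by curve fitting.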

T1 sequence (P51532 whole entry): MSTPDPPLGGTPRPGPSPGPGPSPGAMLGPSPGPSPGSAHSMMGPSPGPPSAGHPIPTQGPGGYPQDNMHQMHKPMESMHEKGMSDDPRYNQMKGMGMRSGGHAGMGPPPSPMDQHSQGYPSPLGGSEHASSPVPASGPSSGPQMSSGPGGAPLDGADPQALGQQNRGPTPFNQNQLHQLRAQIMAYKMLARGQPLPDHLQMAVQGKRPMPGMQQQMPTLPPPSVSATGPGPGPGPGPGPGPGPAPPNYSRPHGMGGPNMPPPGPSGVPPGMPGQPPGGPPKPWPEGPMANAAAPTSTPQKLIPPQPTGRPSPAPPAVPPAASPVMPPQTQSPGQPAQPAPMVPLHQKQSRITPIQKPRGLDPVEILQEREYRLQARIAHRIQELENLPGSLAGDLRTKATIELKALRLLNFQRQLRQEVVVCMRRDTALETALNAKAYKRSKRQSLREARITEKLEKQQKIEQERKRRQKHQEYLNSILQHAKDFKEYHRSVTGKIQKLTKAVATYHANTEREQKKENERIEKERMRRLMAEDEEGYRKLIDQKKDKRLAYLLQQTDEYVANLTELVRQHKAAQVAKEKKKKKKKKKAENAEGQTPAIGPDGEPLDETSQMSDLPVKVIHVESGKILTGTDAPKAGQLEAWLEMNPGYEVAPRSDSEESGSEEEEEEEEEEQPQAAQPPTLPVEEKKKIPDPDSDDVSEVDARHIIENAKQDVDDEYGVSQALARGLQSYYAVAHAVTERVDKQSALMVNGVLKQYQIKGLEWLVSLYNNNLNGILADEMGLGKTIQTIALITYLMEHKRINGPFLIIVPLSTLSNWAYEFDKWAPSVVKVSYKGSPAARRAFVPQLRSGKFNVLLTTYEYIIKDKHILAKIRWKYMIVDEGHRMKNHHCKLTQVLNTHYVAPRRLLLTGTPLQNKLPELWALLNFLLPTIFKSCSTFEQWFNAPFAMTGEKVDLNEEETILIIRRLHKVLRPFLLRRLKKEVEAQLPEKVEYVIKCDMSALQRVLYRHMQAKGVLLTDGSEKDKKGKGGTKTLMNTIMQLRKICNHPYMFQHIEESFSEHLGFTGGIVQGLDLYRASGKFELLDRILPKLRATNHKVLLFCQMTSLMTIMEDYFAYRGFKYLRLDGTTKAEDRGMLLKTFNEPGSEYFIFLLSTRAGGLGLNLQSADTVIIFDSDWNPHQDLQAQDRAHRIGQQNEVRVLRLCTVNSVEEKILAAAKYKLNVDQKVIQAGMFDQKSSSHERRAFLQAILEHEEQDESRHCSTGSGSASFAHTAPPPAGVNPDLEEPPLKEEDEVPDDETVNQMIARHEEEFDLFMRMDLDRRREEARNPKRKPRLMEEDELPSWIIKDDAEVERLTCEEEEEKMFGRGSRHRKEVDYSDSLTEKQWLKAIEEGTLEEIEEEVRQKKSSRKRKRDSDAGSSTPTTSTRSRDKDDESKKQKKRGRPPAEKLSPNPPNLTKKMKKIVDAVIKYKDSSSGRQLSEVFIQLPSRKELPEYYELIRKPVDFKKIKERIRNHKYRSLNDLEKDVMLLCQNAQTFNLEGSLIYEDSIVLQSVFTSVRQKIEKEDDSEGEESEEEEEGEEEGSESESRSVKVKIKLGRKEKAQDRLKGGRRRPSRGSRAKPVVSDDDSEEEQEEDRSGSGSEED
T2 sequence (P51531 whole entry): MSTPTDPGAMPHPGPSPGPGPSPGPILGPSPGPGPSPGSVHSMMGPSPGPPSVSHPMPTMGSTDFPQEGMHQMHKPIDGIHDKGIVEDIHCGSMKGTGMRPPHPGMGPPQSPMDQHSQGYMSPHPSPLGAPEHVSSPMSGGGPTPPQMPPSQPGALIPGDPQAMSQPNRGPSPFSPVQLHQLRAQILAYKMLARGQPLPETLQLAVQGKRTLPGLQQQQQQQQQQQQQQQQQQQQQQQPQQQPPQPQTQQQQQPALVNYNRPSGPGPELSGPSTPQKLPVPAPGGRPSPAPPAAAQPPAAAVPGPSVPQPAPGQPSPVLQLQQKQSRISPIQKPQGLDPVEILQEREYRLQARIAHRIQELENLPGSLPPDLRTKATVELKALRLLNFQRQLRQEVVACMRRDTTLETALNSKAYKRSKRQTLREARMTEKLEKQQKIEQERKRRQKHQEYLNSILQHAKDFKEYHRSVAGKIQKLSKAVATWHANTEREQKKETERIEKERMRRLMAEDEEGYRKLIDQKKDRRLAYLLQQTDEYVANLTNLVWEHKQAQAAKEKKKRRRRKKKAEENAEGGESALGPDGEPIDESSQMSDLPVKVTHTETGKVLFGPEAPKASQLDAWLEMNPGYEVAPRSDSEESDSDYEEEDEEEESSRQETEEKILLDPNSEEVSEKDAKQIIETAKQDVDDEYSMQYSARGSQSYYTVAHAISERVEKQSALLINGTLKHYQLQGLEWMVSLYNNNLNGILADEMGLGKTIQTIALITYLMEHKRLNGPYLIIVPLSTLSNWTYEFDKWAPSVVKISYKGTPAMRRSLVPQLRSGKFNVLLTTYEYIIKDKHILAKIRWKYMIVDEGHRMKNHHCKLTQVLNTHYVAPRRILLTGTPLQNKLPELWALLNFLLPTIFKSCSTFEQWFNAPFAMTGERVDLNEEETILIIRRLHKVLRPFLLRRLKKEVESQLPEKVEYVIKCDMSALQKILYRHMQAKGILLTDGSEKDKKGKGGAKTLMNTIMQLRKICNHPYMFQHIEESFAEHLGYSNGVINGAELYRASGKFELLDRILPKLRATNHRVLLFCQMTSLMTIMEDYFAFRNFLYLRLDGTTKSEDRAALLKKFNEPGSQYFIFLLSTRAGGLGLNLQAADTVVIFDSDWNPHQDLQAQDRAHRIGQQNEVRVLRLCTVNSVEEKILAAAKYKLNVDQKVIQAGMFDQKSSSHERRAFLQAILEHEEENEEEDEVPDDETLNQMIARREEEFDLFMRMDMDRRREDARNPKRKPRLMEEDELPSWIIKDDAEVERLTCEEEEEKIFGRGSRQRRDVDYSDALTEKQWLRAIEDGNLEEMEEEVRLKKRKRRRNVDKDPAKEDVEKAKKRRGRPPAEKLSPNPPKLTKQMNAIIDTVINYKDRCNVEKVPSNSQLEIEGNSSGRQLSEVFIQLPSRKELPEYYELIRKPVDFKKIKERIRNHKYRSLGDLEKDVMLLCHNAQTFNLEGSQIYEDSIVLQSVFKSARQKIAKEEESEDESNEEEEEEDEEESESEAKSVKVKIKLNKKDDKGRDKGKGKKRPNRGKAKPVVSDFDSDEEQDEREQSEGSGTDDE

Broadly, the DC50 is the concentration giving 50% degradation. High values mean a less potent degrader, low ones a more potent degrader. One may read the Dmax as the greatest extent of degradation seen. Consider `O=C1CCC(N2Cc3ccc(N4CCN(Cc5cnc(O[C@H]6CN7c8cc(-c9cccc(F)c9O)nnc8NC[C@@]7(C(F)F)C6)c(Cl)c5)CC4)cc3C2=O)C(=O)N1` (stereo partly drawn) [Example 85, 3-(6-(4-((5-chloro-6-(((6aR,8R)-6a-(difluoromethyl)-2-(3-fluoro-2-hydroxyphenyl)-5,6,6a,7,8,9-hexahydropyrrolo[1′,2′:4,5]pyrazino[2,3-c]pyridazin-8-yl)oxy)pyridin-3-yl)methyl)piperazin-1-yl)-1-oxoisoindolin-2-yl)piperidine-2,6-dione], for which, on SMARCA4, the DC50 was under 0.1 µM and the Dmax lay in the range of 50 to 75%. On SMARCA2, this compound had a DC50 of under 0.1 µM and a Dmax of over 75%.
`Cc1c(CN2CCN(c3ccc4c(c3)C(=O)N([C@H]3CCC(=O)NC3=O)C4)CC2)cnc(O[C@H]2CN3c4cc(-c5cccc(F)c5O)nnc4NC[C@@]3(C(F)F)C2)c1C` [Example 86, (S)-3-(6-(4-((6-(((6aR,8R)-6a-(difluoromethyl)-2-(3-fluoro-2-hydroxyphenyl)-5,6,6a,7,8,9-hexahydropyrrolo[1′,2′:4,5]pyrazino[2,3-c]pyridazin-8-yl)oxy)-4,5-dimethylpyridin-3-yl)methyl)piperazin-1-yl)-1-oxoisoindolin-2-yl)piperidine-2,6-dione]: at SMARCA4, the DC50 was 0.1 to 1 µM and the Dmax was under 50%. Also, at SMARCA2, the DC50 is under 0.1 µM and the Dmax is over 75%.
At SMARCA4, `Cc1cc(CN2CCN(c3ccc4c(c3)C(=O)N([C@H]3CCC(=O)NC3=O)C4)CC2)c(C)nc1O[C@H]1CN2c3cc(-c4cccc(F)c4O)nnc3NC[C@@]2(C(F)F)C1` [Example 87, (S)-3-(6-(4-((6-(((6aR,8R)-6a-(difluoromethyl)-2-(3-fluoro-2-hydroxyphenyl)-5,6,6a,7,8,9-hexahydropyrrolo[1′,2′:4,5]pyrazino[2,3-c]pyridazin-8-yl)oxy)-2,5-dimethylpyridin-3-yl)methyl)piperazin-1-yl)-1-oxoisoindolin-2-yl)piperidine-2,6-dione] came in with a DC50 of 0.1 to 1 µM and a Dmax of under 50%. On SMARCA2, this compound registered a DC50 of under 0.1 µM and a Dmax of over 75%.
Consider `O=C1CCC(N2Cc3ccc(C4CCN(Cc5cnc(O[C@H]6CN7c8cc(-c9cccc(F)c9O)nnc8NC[C@@]7(C(F)F)C6)c(F)c5)CC4)cc3C2=O)C(=O)N1` (stereo partly drawn) [Example 88, 3-(6-(1-((6-(((6aR,8R)-6a-(difluoromethyl)-2-(3-fluoro-2-hydroxyphenyl)-5,6,6a,7,8,9-hexahydropyrrolo[1′,2′:4,5]pyrazino[2,3-c]pyridazin-8-yl)oxy)-5-fluoropyridin-3-yl)methyl)piperidin-4-yl)-1-oxoisoindolin-2-yl)piperidine-2,6-dione], for which, on SMARCA4, the DC50 was 0.1 to 1 µM and the Dmax is under 50%. Further, at SMARCA2, the DC50 was under 0.1 µM and the Dmax was over 75%.
In the case of `Cc1c(CN2CCC(c3ccc4c(c3)C(=O)N([C@H]3CCC(=O)NC3=O)C4)CC2)cnc(O[C@H]2CN3c4cc(-c5cccc(F)c5O)nnc4NC[C@]3(C(F)F)C2)c1F` [Example 89, (S)-3-(6-(1-((6-(((6aS,8R)-6a-(difluoromethyl)-2-(3-fluoro-2-hydroxyphenyl)-5,6,6a,7,8,9-hexahydropyrrolo[1′,2′:4,5]pyrazino[2,3-c]pyridazine-8-yl)oxy)-5-fluoro-4-methylpyridin-3-yl)methyl)piperidin-4-yl)-1-oxoisoindolin-2-yl)piperidine-2,6-dione], at SMARCA4, the DC50 is under 0.1 µM and the Dmax is over 75%. Moreover, at SMARCA2, the DC50 is under 0.1 µM and the Dmax is over 75%.
On SMARCA4, `O=C1CC[C@H](N2Cc3ccc(C4CCN(Cc5ccc(O[C@H]6CN7c8cc(-c9cccc(F)c9O)nnc8NC[C@@]7(C(F)F)C6)nc5)CC4)cc3C2=O)C(=O)N1` [Example 90, (S)-3-(6-(1-((6-(((6aR,8R)-6a-(difluoromethyl)-2-(3-fluoro-2-hydroxyphenyl)-5,6,6a,7,8,9-hexahydropyrrolo[1′,2′:4,5]pyrazino[2,3-c]pyridazin-8-yl)oxy)pyridin-3-yl)methyl)piperidin-4-yl)-1-oxoisoindolin-2-yl)piperidine-2,6-dione] gave a DC50 of over 1 µM and a Dmax of under 50%. At SMARCA2, this compound yielded a DC50 of under 0.1 µM and a maximal degradation (Dmax) of over 75%.
On SMARCA4, `Cc1nc(CN2CCC(c3ccc4c(c3)C(=O)N([C@H]3CCC(=O)NC3=O)C4)CC2)cnc1O[C@H]1CN2c3cc(-c4cccc(F)c4O)nnc3NC[C@]2(C(F)F)C1` [Example 91, (S)-3-(6-(1-((5-(((6aS,8R)-6a-(difluoromethyl)-2-(3-fluoro-2-hydroxyphenyl)-5,6,6a,7,8,9-hexahydropyrrolo[1′,2′:4,5]pyrazino[2,3-c]pyridazin-8-yl)oxy)-6-methylpyrazin-2-yl)methyl)piperidin-4-yl)-1-oxoisoindolin-2-yl)piperidine-2,6-dione] gave a DC50 of under 0.1 µM and a Dmax of 50 to 75%. Also, on SMARCA2, the DC50 is under 0.1 µM and the Dmax is over 75%.
As to `Cc1cc(CN2CCC(c3ccc4c(c3)C(=O)N([C@H]3CCC(=O)NC3=O)C4)CC2)ncc1O[C@H]1CN2c3cc(-c4cccc(F)c4O)nnc3NC[C@]2(C(F)F)C1` [Example 92, (S)-3-(6-(1-((5-(((6aS,8R)-6a-(difluoromethyl)-2-(3-fluoro-2-hydroxyphenyl)-5,6,6a,7,8,9-hexahydropyrrolo[1′,2′:4,5]pyrazino[2,3-c]pyridazin-8-yl)oxy)-4-methylpyridin-2-yl)methyl)piperidin-4-yl)-1-oxoisoindolin-2-yl)piperidine-2,6-dione], on SMARCA4, the DC50 is under 0.1 µM and the greatest degradation seen (Dmax) is 50 to 75%. At SMARCA2, this compound registered a 50% degradation concentration (DC50) of under 0.1 µM and a Dmax of over 75%.
In the case of `Cc1cc(O[C@H]2CN3c4cc(-c5cccc(F)c5O)nnc4NC[C@@]3(CF)C2)ncc1CN1CCC(c2ccc3c(c2)C(=O)N([C@H]2CCC(=O)NC2=O)C3)CC1` [Example 93, (S)-3-(6-(1-((6-(((6aR,8R)-2-(3-fluoro-2-hydroxyphenyl)-6a-(fluoromethyl)-5,6,6a,7,8,9-hexahydropyrrolo [1′,2′:4,5]pyrazino[2,3-c]pyridazin-8-yl)oxy)-4-methylpyridin-3-yl)methyl)piperidin-4-yl)-1-oxoisoindolin-2-yl)piperidine-2,6-dione], the DC50 was over 1 µM on SMARCA4 and under 0.1 µM on SMARCA2. Moreover, the Dmax on SMARCA4 is under 50%; at SMARCA2 it was over 75%.
With `Cc1cc(CN2CCC(c3ccc4c(c3)C(=O)N([C@H]3CCC(=O)NC3=O)C4)CC2)ncc1O[C@H]1CN2c3cc(-c4cccc(C)c4O)nnc3NC[C@]2(C(F)F)C1` [Example 94, (S)-3-(6-(1-((5-(((6aS,8R)-6a-(difluoromethyl)-2-(2-hydroxy-3-methylphenyl)-5,6,6a,7,8,9-hexahydropyrrolo [1′,2′:4,5]pyrazino[2,3-c]pyridazin-8-yl)oxy)-4-methylpyridin-2-yl)methyl)piperidin-4-yl)-1-oxoisoindolin-2-yl)piperidine-2,6-dione], on SMARCA4, the DC50 was over 1 µM and the Dmax was under 50%. On SMARCA2, the DC50 was under 0.1 µM and the Dmax fell in the range of 50 to 75%.
Regarding `CC[C@@]12CNc3nnc(-c4cccc(C)c4O)cc3N1C[C@H](Oc1cnc(CN3CCC(c4ccc5c(c4)C(=O)N([C@H]4CCC(=O)NC4=O)C5)CC3)c(C)c1C)C2` [Example 95, (S)-3-(6-(1-((5-(((6aR,8R)-6a-ethyl-2-(2-hydroxy-3-methylphenyl)-5,6,6a,7,8,9-hexahydropyrrolo[1′,2′:4,5]pyrazino[2,3-c]pyridazin-8-yl)oxy)-3,4-dimethylpyridin-2-yl)methyl)piperidin-4-yl)-1-oxoisoindolin-2-yl)piperidine-2,6-dion], at SMARCA4, the DC50 is over 1 µM and the Dmax is under 50%. In addition, on SMARCA2, the DC50 was under 0.1 µM and the Dmax is over 75%.
At SMARCA4, `CC[C@]12CNc3nnc(-c4cccc(C)c4O)cc3N1C[C@H](Oc1nc(C)c(CN3CCC(c4ccc5c(c4)C(=O)N([C@H]4CCC(=O)NC4=O)C5)CC3)c(C)n1)C2` [Example 96, (S)-3-(6-(1-((2-(((6aS,8R)-6a-ethyl-2-(2-hydroxy-3-methylphenyl)-5,6,6a,7,8,9-hexahydropyrrolo[1′,2′:4,5]pyrazino[2,3-c]pyridazin-8-yl)oxy)-4,6-dimethylpyrimidin-5-yl)methyl)piperidin-4-yl)-1-oxoisoindolin-2-yl)piperidine-2,6-dione] displayed a DC50 of 0.1 to 1 µM and a Dmax of under 50%. On SMARCA2, the DC50 was under 0.1 µM and the Dmax was over 75%.
As to `CC[C@]12CNc3nnc(-c4cccc(C)c4O)cc3N1C[C@H](Oc1cnc(CN3CCC(c4ccc5c(c4)C(=O)N([C@H]4CCC(=O)NC4=O)C5)CC3)c(C)c1)C2` [Example 97, (S)-3-(6-(1-((5-(((6aS,8R)-6a-ethyl-2-(2-hydroxy-3-methylphenyl)-5,6,6a,7,8,9-hexahydropyrrolo[1′,2′:4,5]pyrazino[2,3-c]pyridazin-8-yl)oxy)-3-methylpyridin-2-yl)methyl)piperidin-4-yl)-1-oxoisoindolin-2-yl)piperidine-2,6-dione], the DC50 at SMARCA4 and at SMARCA2 was under 0.1 µM in each case. In addition, the results for the Dmax on SMARCA4 and on SMARCA2 were 50 to 75% and over 75%, respectively.

The record behind these values is patent US20240165244A1 (Prelude Therapeutics Incorporated, priority 2022, published 2024).
